Assays:
cells = conditions: pre-treatment of cells with leontopodic acid, Costa et al. 2010; cited from earlier work
[1] = system: rat primary cortical neurons; experiment: Survival of primary cortical neurons injured by Aβ1-42 peptide (MAP-2 staining); assay type: cell-based; conditions: Aβ1-42 peptide 20 μM, 24 hours, 0.1% DMSO
Method: (§1) The purpose of this study is to evaluate the effects of the root extract on rat primary cortical neurons, intoxicated by Aβ peptide according to the in vitro Alzheimer disease model described in Callizot et al., 2013 (Callizot N. et al., Operational dissection of β-amyloid cytopathic effects on cultured neurons, J Neurosci Res. 2013, 91: 706-16). The neuron survival as well as the integrity of the neuritic network are evaluated.
(§2) Four concentrations are tested: 10 ng/mL, 100 ng/mL, 1 μg/mL and 10 μg/mL of dry extract diluted in water with 0.1% of DMSO.
(§3) Rat cortical neurons are cultured as described in Singer et al., 1999 (Singer C, et al., Mitogen-activated protein kinase pathway mediates estrogen neuroprotection after glutamate toxicity in primary cortical neurons. J Neurosci. 1999, 19: 2455-2463) and Callizot et al., (2013). In summary, gravid female rats are killed by cervical dislocation after 15 days of pregnancy. The foetuses are collected and immediately placed on an ice L15 Leibovitz medium (Pan Biotech, Batch: 8810315) added with 2% of penicillin (10,000 U/mL) and a streptomycin solution (l0 mg/mL) (PS; Pan Biotech, batch: 1451013) and 1% of bovine serum albumin (BSA; Pan Biotech, batch: K180713). […] The viable cells are counted with a Neubauer cytometer, using the trypan blue exclusion test. […]

[2] = system: neuritic network of rat primary cortical neurons; experiment: Neuritic network of primary cortical neurons injured by Aβ1-42 peptide (MAP-2 staining); assay type: cell-based; conditions: Aβ1-42 peptide 20 μM, 24 hours, 0.1% DMSO
Method: as §1, §2, §3

## C[C@H](O)CC(=O)O[C@@H](C(=O)O)[C@@H](OC(=O)/C=C/c1ccc(O)c(O)c1)[C@H](OC(=O)/C=C/c1ccc(O)c(O)c1)[C@H](OC(=O)/C=C/c1ccc(O)c(O)c1)C(=O)O [leontopodic acid]
cells
  cell survival: no improvement in the cell survival
  production of reactive oxygen species (ROS): decrease in the production of reactive oxygen species (ROS)

## Aβ1-42 peptide: β-amyloid peptide (Bachem) used at 20 μM to intoxicate cortical neurons
[1]
  neurone death induced by the peptide alone: significant neurone death
[2]
  loss of the neuritic network induced by the peptide alone: significant loss of the neuritic network

Source: US20200375880A1, “PLANT EXTRACTS FROM THE TAGETES GENUS AND USES OF SAME” (PLANT ADVANCED TECHNOLOGIES PAT, priority 2016, published 2020)
